Measured values as given in PubChem BioAssay AID1996.
Converted amounts (≈) assume the structure as drawn.

Details: buffer; pH 7.4; 200.0 µM

Row | Compound | solubility kinetic [µg/mL]
1 | O=C(COC(=O)c1ccncc1)c1ccc(Br)cc1 | 44 (≈ 137 µM)
2 | O=C(OCC(=O)N1CCN(c2ccc(F)cc2)CC1)c1cnc2ccccc2n1 | 19.5 (≈ 49.4 µM)
3 | OC(c1ccccc1)(c1ccc(Cl)cc1)C1CN2CCC1CC2 (stereo not given) | > 49.2
4 | Cc1cc(NC(=O)c2cccs2)ncc1NC(=O)C(C)(C)C | 38.6 (≈ 122 µM)
5 | O=C(OCC(=O)N1CCCC1)c1ccc(Cl)nc1 | > 40.3
6 | CC1C(=O)Nc2ccccc2N1C(=O)c1cccc(C(F)(F)F)c1 (stereo not given) | > 50.1
7 | COc1ccc(NC(=O)COc2cccnc2[N+](=O)[O-])cc1OC | > 50
8 | O=C(Nc1ccccc1F)c1c[nH]c(=O)[nH]c1=O | 5.5 (≈ 22.1 µM)
9 | CCN(CC)C(=O)c1cccc2nc3ccccc3nc12 | > 41.9
10 | COc1ccc(C2=NOC(COc3ccc([N+](=O)[O-])cc3)C2)cc1 (stereo not given) | < 0.4
11 | CNS(=O)(=O)c1cccc(C(=O)NCC(C)(C)N2CCCCC2)c1 | 48.8 (≈ 138 µM)
12 | O=C(Nc1ccc2c(c1)OCCO2)c1ccc(Cl)cc1Cl | 3.5 (≈ 10.8 µM)
13 | CC(CNC(=O)COC(=O)c1cccs1)c1ccccc1 (stereo not given) | > 45.5
14 | Cc1cc(C)cc(NC(=O)C(=O)NCCCN2CCOCC2)c1 | > 47.9
15 | COc1cccc(C(=O)Nc2ccc(C(=O)c3ccccc3)cc2)c1 | 7.4 (≈ 22.3 µM)
16 | Cc1ccccc1NC(=O)c1ccccn1 | 28.9 (≈ 136 µM)
17 | CCNc1nc(NCC)nc(OCC(=O)O)n1 | > 36.2
18 | N#Cc1ccc(-c2cccnc2)nc1SCC(=O)c1ccccc1 | 2.8 (≈ 8.45 µM)
19 | COc1ccc(-c2cc(-c3ccccc3)c(C#N)c(SCC(=O)O)n2)cc1 | > 56.5
20 | Cc1ccc2c(c1)sc(=NC(=O)C1CC1)n2C | 15.5 (≈ 62.9 µM)
21 | Cc1cc(SCc2ccc(Cl)cc2Cl)nc(=O)[nH]1 | 4.6 (≈ 15.3 µM)
22 | CN(C)C(=O)C1CCC(=O)N1Cc1cccs1 (stereo not given) | > 37.8
23 | COc1cccc(CNCCc2c[nH]c3ccccc23)c1OC.Cl | > 52
24 | O=C1c2ccc([N+](=O)[O-])cc2C(=O)N1c1ccc([N+](=O)[O-])cn1 | 41.3 (≈ 131 µM)
25 | CC(NC(=O)Nc1ccc(Cl)cc1)c1ccccc1 (stereo not given) | 1.9 (≈ 6.92 µM)
26 | COc1ccccc1OCC#CCn1ccnc1.O=C(O)C(=O)O | > 49.8
27 | Fc1cccc(F)c1-c1nc(-c2ccc(Cl)cc2)no1 | < 0.3
28 | O=C(O)/C=C/c1ccc(-n2ccnc2)cc1 | > 32.1
29 | O=C(Nc1cccc(C(F)(F)F)c1)c1scc2c1OCCO2 | < 0.7
30 | O=C(O)Cc1c(-c2ccccc2)c2cc(Br)ccc2[nH]c1=O | 50.2 (≈ 140 µM)

Next, values leading:

Row | solubility kinetic [µg/mL] | Compound
31 | 44.5 (≈ 134 µM) | O=C(O)CC(NC(=O)CCc1ccccc1)c1ccc(Cl)cc1 (stereo not given)
32 | 33.7 (≈ 96.4 µM) | CCN(C(=O)COc1ccc(C)cc1OC)c1cccc2ccccc12
33 | < 0.4 | COc1cccc(/C=C/C(=O)OCC(=O)Nc2ccc(Cl)cn2)c1
34 | 2 (≈ 7.18 µM) | CCN(CC)c1cc(C)c(C#N)c2nc3ccccc3n12
35 | > 40 | CCC1CCCCN1C(=S)NC(=O)c1ccco1 (stereo not given)
36 | 31.1 (≈ 75 µM) | CC1CC1C(=O)OCC(=O)Nc1cc(S(=O)(=O)N2CCCCC2)ccc1Cl (stereo not given)
37 | > 41.7 | COc1ccc(Cl)cc1CN1CCOCC1.Cl
38 | 4.1 (≈ 15.3 µM) | S=C(NCc1ccco1)Nc1ccc(Cl)cn1
39 | 1 (≈ 3.35 µM) | CSc1nc(C)c(Cc2c(F)cccc2Cl)c(=O)[nH]1
40 | > 49.6 | CCCOc1ccc(C(=O)OCCN(CC)CC)cc1N.Cl
41 | > 40.2 | O=C(CN1C(=O)CNC1=O)Nc1ccc(Cl)cc1
42 | 7.6 (≈ 23 µM) | CN(CC(=O)NC1CCCC1)S(=O)(=O)c1cccc(Cl)c1
43 | 3.5 (≈ 13.2 µM) | CCOC(=O)/C(C#N)=C/Nc1ccsc1C(C)=O
44 | > 49 | CCc1ccc(N(CC(=O)N2CCOCC2)S(C)(=O)=O)cc1
45 | > 44 | CCNc1nc(NC(C)C)nc(N(C#N)CC(=O)OC)n1
46 | 3.7 (≈ 10.1 µM) | COc1ccc(/C=C/C(=O)OCC(=O)NC(C)CCc2ccccc2)cc1 (stereo not given)
47 | 42.2 (≈ 142 µM) | O=C(CCCn1c(=O)oc2ccccc21)Nc1ccccc1
48 | > 44.6 | CCCc1cc(=O)[nH]c(SCC(=O)N2CCOCC2)n1
49 | 43.2 | CC(CN1CCOCC1)OC(=O)c1cccc(Cl)c1.Cl (stereo not given)
50 | 6 (≈ 17 µM) | COc1nc(NC(=O)c2ccc(F)cc2)nc(OC)c1-c1ccccc1
51 | > 38.3 | O=C(CCn1ccnc1)Nc1nc2ccccc2[nH]1
52 | < 0.2 | CC(C)CC(=O)NC(=S)Nc1ccc(N2CCCC2)c(Cl)c1
53 | > 27.9 | Cn1cncc1C(=O)c1ccccc1
54 | 1.7 (≈ 4.89 µM) | COc1cccc(CN(C)C(c2ccccc2)c2ccccc2)c1OC
55 | > 39.4 | Cc1cc(C)cc(C(=O)NCCN2CCOCC2)c1
56 | 16.7 (≈ 62.1 µM) | O=[N+]([O-])c1ccc(Cl)cc1CN1CCCCCC1
57 | 20.9 | Cc1ccc2c(CN3CCCCC3C)cc(=O)oc2c1C.Cl (stereo not given)
58 | > 49.2 | O=C(CNC(=O)c1ccc(OC(F)F)cc1)NCC1CCCO1 (stereo not given)
59 | < 0.8 | O=C1/C(=C/c2ccc(F)cc2)Oc2cc(OC(=O)N3CCOCC3)ccc21
60 | 23.4 (≈ 82.6 µM) | COc1ccc(CN2C(=O)C(C)Oc3ccccc32)cc1 (stereo not given)
